Data from ChEMBL document CHEMBL3885881, “DrugMatrix”.

Organism: Rattus norvegicus
Assay: DrugMatrix - Regimen: Daily Repeat
Assay type: toxicity, organism-based, Sprague-Dawley
Parameters: regimen Daily Repeat, gender Male, age 6-8 weeks
Settings: in vivo, po, route oral GAVAGE, vehicle .5 % CMC; for BASOPHIL / EOSINOPHIL / ERYTHROCYTE COUNT / HEMATOCRIT / HEMOGLOBIN / LEUKOCYTE COUNT / LYMPHOCYTE / MEAN CORPUSCULAR HEMOGLOBIN / MEAN CORPUSCULAR HEMOGLOBIN CONCENTRATION / MEAN CORPUSCULAR VOLUME / MONOCYTE / NEUTROPHIL / PLATELET COUNT: tissue Blood; for ALANINE AMINOTRANSFERASE / ALBUMIN / ALKALINE PHOSPHATASE / ASPARTATE AMINOTRANSFERASE / BLOOD UREA NITROGEN / CHLORIDE / CHOLESTEROL / CREATINE PHOSPHOKINASE / CREATININE / GLUCOSE / PHOSPHORUS / POTASSIUM / SODIUM / TOTAL BILIRUBIN / TOTAL PROTEIN: tissue Plasma
[1] = 0 mg/kg, 72 h, dose level Control, time 3 day
[2] = 0 mg/kg, 120 h, dose level Control, time 5 day
[3] = 150 mg/kg, 72 h, dose level Low, time 3 day
[4] = 150 mg/kg, 120 h, dose level Low, time 5 day
[5] = 1500 mg/kg, 72 h, dose level High, time 3 day
[6] = 1500 mg/kg, 120 h, dose level High, time 5 day

C#C[C@]1(O)CC[C@H]2[C@@H]3CCC4=CC(=O)CC[C@]4(C)[C@H]3CC[C@@]21C [ETHISTERONE]
BASOPHIL [1]: 0.68% | EOSINOPHIL [1]: 0.46% | ERYTHROCYTE COUNT [1]: 7.15 x10E6/uL | HEMATOCRIT [1]: 45.44% | HEMOGLOBIN [1]: 14.1 G/DL | LEUKOCYTE COUNT [1]: 9.78 x10E3/uL | LYMPHOCYTE [1]: 84.44% | MEAN CORPUSCULAR HEMOGLOBIN [1]: 19.72 pg | MEAN CORPUSCULAR HEMOGLOBIN CONCENTRATION [1]: 31 G/DL | MEAN CORPUSCULAR VOLUME [1]: 63.66 fL | MONOCYTE [1]: 2.14% | NEUTROPHIL [1]: 11.16% | PLATELET COUNT [1]: 1378.2 x10E3/uL | ALANINE AMINOTRANSFERASE [1]: 42.33 u/L | ALBUMIN [1]: 3.8 G/DL | ALKALINE PHOSPHATASE [1]: 388.17 u/L | ASPARTATE AMINOTRANSFERASE [1]: 68 u/L | BLOOD UREA NITROGEN [1]: 16.17 mg/dL | CHLORIDE [1]: 96.67 MEQ/L | CHOLESTEROL [1]: 71 mg/dL | CREATINE PHOSPHOKINASE [1]: 156.17 u/L | CREATININE [1]: 0.57 mg/dL | GLUCOSE [1]: 193.67 mg/dL | PHOSPHORUS [1]: 11.43 mg/dL | POTASSIUM [1]: 7 MEQ/L | SODIUM [1]: 140.33 MEQ/L | TOTAL BILIRUBIN [1]: 0.48 mg/dL | TOTAL PROTEIN [1]: 6.8 G/DL | BASOPHIL [2]: 1.47% | EOSINOPHIL [2]: 1% | ERYTHROCYTE COUNT [2]: 7.12 x10E6/uL | HEMATOCRIT [2]: 45.47% | HEMOGLOBIN [2]: 14.1 G/DL | LEUKOCYTE COUNT [2]: 11.38 x10E3/uL | LYMPHOCYTE [2]: 82.57% | MEAN CORPUSCULAR HEMOGLOBIN [2]: 19.82 pg | MEAN CORPUSCULAR HEMOGLOBIN CONCENTRATION [2]: 31.02 G/DL | MEAN CORPUSCULAR VOLUME [2]: 63.88 fL | MONOCYTE [2]: 2.2% | NEUTROPHIL [2]: 11.97% | PLATELET COUNT [2]: 1267 x10E3/uL | ALANINE AMINOTRANSFERASE [2]: 38 u/L | ALBUMIN [2]: 3.72 G/DL | ALKALINE PHOSPHATASE [2]: 391 u/L | ASPARTATE AMINOTRANSFERASE [2]: 65.83 u/L | BLOOD UREA NITROGEN [2]: 14.17 mg/dL | CHLORIDE [2]: 107.67 MEQ/L | CHOLESTEROL [2]: 61 mg/dL | CREATINE PHOSPHOKINASE [2]: 148.33 u/L | CREATININE [2]: 0.57 mg/dL | GLUCOSE [2]: 177.17 mg/dL | PHOSPHORUS [2]: 12.07 mg/dL | POTASSIUM [2]: 7.2 MEQ/L | SODIUM [2]: 151.5 MEQ/L | TOTAL BILIRUBIN [2]: 0.58 mg/dL | TOTAL PROTEIN [2]: 6.72 G/DL | BASOPHIL [3]: 0.73% | EOSINOPHIL [3]: 0.33% | ERYTHROCYTE COUNT [3]: 6.6 x10E6/uL | HEMATOCRIT [3]: 41.67% | HEMOGLOBIN [3]: 13.17 G/DL | LEUKOCYTE COUNT [3]: 10.76 x10E3/uL | LYMPHOCYTE [3]: 79.57% | MEAN CORPUSCULAR HEMOGLOBIN [3]: 19.9 pg | MEAN CORPUSCULAR HEMOGLOBIN CONCENTRATION [3]: 31.57 G/DL | MEAN CORPUSCULAR VOLUME [3]: 63.13 fL | MONOCYTE [3]: 3.47% | NEUTROPHIL [3]: 14.4% | PLATELET COUNT [3]: 1218.67 x10E3/uL | ALANINE AMINOTRANSFERASE [3]: 35.67 u/L | ALBUMIN [3]: 3.57 G/DL | ALKALINE PHOSPHATASE [3]: 319.33 u/L | ASPARTATE AMINOTRANSFERASE [3]: 62.67 u/L | BLOOD UREA NITROGEN [3]: 13.33 mg/dL | CHLORIDE [3]: 95.33 MEQ/L | CHOLESTEROL [3]: 60 mg/dL | CREATINE PHOSPHOKINASE [3]: 132 u/L | CREATININE [3]: 0.5 mg/dL | GLUCOSE [3]: 185.33 mg/dL | PHOSPHORUS [3]: 12.3 mg/dL | POTASSIUM [3]: 6.3 MEQ/L | SODIUM [3]: 138.33 MEQ/L | TOTAL BILIRUBIN [3]: 0.4 mg/dL | TOTAL PROTEIN [3]: 6.37 G/DL | BASOPHIL [4]: 0.93% | EOSINOPHIL [4]: 0.27% | ERYTHROCYTE COUNT [4]: 7.3 x10E6/uL | HEMATOCRIT [4]: 45.67% | HEMOGLOBIN [4]: 14.1 G/DL | LEUKOCYTE COUNT [4]: 8.86 x10E3/uL | LYMPHOCYTE [4]: 86.5% | MEAN CORPUSCULAR HEMOGLOBIN [4]: 19.3 pg | MEAN CORPUSCULAR HEMOGLOBIN CONCENTRATION [4]: 30.87 G/DL | MEAN CORPUSCULAR VOLUME [4]: 62.6 fL | MONOCYTE [4]: 2.7% | NEUTROPHIL [4]: 8.87% | PLATELET COUNT [4]: 1265.33 x10E3/uL | ALANINE AMINOTRANSFERASE [4]: 35.67 u/L | ALBUMIN [4]: 3.6 G/DL | ALKALINE PHOSPHATASE [4]: 382.67 u/L | ASPARTATE AMINOTRANSFERASE [4]: 57.67 u/L | BLOOD UREA NITROGEN [4]: 14.33 mg/dL | CHLORIDE [4]: 105.67 MEQ/L | CHOLESTEROL [4]: 39.67 mg/dL | CREATINE PHOSPHOKINASE [4]: 113.33 u/L | CREATININE [4]: 0.57 mg/dL | GLUCOSE [4]: 167 mg/dL | PHOSPHORUS [4]: 11.77 mg/dL | POTASSIUM [4]: 7.4 MEQ/L | SODIUM [4]: 151 MEQ/L | TOTAL BILIRUBIN [4]: 0.4 mg/dL | TOTAL PROTEIN [4]: 6.53 G/DL | BASOPHIL [5]: 0.3% | EOSINOPHIL [5]: 0.23% | ERYTHROCYTE COUNT [5]: 7.32 x10E6/uL | HEMATOCRIT [5]: 46.8% | HEMOGLOBIN [5]: 15 G/DL | LEUKOCYTE COUNT [5]: 13.73 x10E3/uL | LYMPHOCYTE [5]: 85.93% | MEAN CORPUSCULAR HEMOGLOBIN [5]: 20.53 pg | MEAN CORPUSCULAR HEMOGLOBIN CONCENTRATION [5]: 32.13 G/DL | MEAN CORPUSCULAR VOLUME [5]: 63.97 fL | MONOCYTE [5]: 2.43% | NEUTROPHIL [5]: 9.77% | PLATELET COUNT [5]: 1394 x10E3/uL | ALANINE AMINOTRANSFERASE [5]: 25.33 u/L | ALBUMIN [5]: 3.93 G/DL | ALKALINE PHOSPHATASE [5]: 316.67 u/L | ASPARTATE AMINOTRANSFERASE [5]: 60.33 u/L | BLOOD UREA NITROGEN [5]: 13.67 mg/dL | CHLORIDE [5]: 96 MEQ/L | CHOLESTEROL [5]: 34 mg/dL | CREATINE PHOSPHOKINASE [5]: 152 u/L | CREATININE [5]: 0.43 mg/dL | GLUCOSE [5]: 166.67 mg/dL | PHOSPHORUS [5]: 12.2 mg/dL | POTASSIUM [5]: 6.83 MEQ/L | SODIUM [5]: 142 MEQ/L | TOTAL BILIRUBIN [5]: 0.3 mg/dL | TOTAL PROTEIN [5]: 7.17 G/DL | BASOPHIL [6]: 0.93% | EOSINOPHIL [6]: 0.27% | ERYTHROCYTE COUNT [6]: 7.53 x10E6/uL | HEMATOCRIT [6]: 48.07% | HEMOGLOBIN [6]: 14.97 G/DL | LEUKOCYTE COUNT [6]: 7.76 x10E3/uL | LYMPHOCYTE [6]: 80.6% | MEAN CORPUSCULAR HEMOGLOBIN [6]: 19.97 pg | MEAN CORPUSCULAR HEMOGLOBIN CONCENTRATION [6]: 31.2 G/DL | MEAN CORPUSCULAR VOLUME [6]: 63.93 fL | MONOCYTE [6]: 3.3% | NEUTROPHIL [6]: 13.73% | PLATELET COUNT [6]: 1362.33 x10E3/uL | ALANINE AMINOTRANSFERASE [6]: 31.67 u/L | ALBUMIN [6]: 3.73 G/DL | ALKALINE PHOSPHATASE [6]: 496 u/L | ASPARTATE AMINOTRANSFERASE [6]: 57.33 u/L | BLOOD UREA NITROGEN [6]: 11 mg/dL | CHLORIDE [6]: 105.67 MEQ/L | CHOLESTEROL [6]: 35.33 mg/dL | CREATINE PHOSPHOKINASE [6]: 132.67 u/L | CREATININE [6]: 0.57 mg/dL | GLUCOSE [6]: 185.67 mg/dL | PHOSPHORUS [6]: 13.8 mg/dL | POTASSIUM [6]: 7.47 MEQ/L | SODIUM [6]: 151.33 MEQ/L | TOTAL BILIRUBIN [6]: 0.33 mg/dL | TOTAL PROTEIN [6]: 6.83 G/DL
